Source: patent US9751885B2, “Cyclopropanamine compound and use thereof” (Takeda Pharmaceutical Company Limited, priority 2012, dated 2017)
“And” between values parts separate entries of the source, which are not always exact repeats. Identical values can stand only once. Counter-ions that a name gives are not always drawn. Like-named read-outs stand apart in the source and are kept apart here. Marks after values point to notes of the source that are not given here.

What was measured:
[1] = Evaluation of hippocampal distribution in mouse; type: in vivo; settings: male ICR mice, 10 mg/kg oral; for concentration at 1 h: 1 hr after administration; for concentration at 0.5 h: 0.5 hr after administration
Summary of the method: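 Male ICR mice dosed orally at 10 mg/kg as suspension in 0.5% methylcellulose/0.02% citric acid/water. Plasma and hippocampus sampled together at 0.5, 1 or 1.5 h; LC/MS/MS concentrations gave hippocampus/plasma ratio.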

[2] = test system: white blood cell number, red blood cell number, platelet number; test: Evaluation of blood cell number in mouse; type: in vivo; settings: oral, Day 2 after administration
Summary of the method: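 Male ICR mice dosed orally at 1, 10, 50 or 100 mg/kg (suspension in 0.5% methylcellulose/0.02% citric acid/water); whole blood collected on Day 2. White cell, red cell and platelet counts per unit volume by automated haematology analyser, expressed as % of mean of untreated control group.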

[3] = test system: Gad1 H3K4me2 level in rat primary culture neurons; test: Gad1 H3K4 methylation induction activity in rat primary culture neurons (ChIP-qPCR); type: cell-based; settings: Rattus norvegicus, Neuron, 72 h, control without compound = 100%; for activity at 1 µM: read-out: Gad1 H3K4me2 induction activity (%), compound 1 μM, 3 days, rat primary culture neurons; for activity at 10 µM: read-out: Gad1 H3K4me2 induction activity (%), compound 10 μM, 3 days, rat primary culture neurons
Protocol: Gad1 H3K4 Methylation Induction Activity in Rat Primary Culture Neurons
Thereafter, the compound was added to final concentrations of 1 or 10 μM, and the cells were further cultured for 3 days. The culture supernatant was aspirated, ice-cold PBS was added, and the cell suspension was collected on ice using CELL SCRAPER (IWAKI). […] (750 μL). Furthermore, 0.3% NP40/cell lysis buffer 1 (750 μL) was added, and the cells were lysed by incubating for 5 min on ice.
Using the DNA obtained by the chromatin immunoprecipitation as a template, quantitative PCR of the Gad1 gene upstream genomic region was performed, and the measurement value was taken as the Gad1 H3K4me2 level. […] The Gad1 H3K4me2 induction by the compound was expressed by the H3K4me2 level when the compound was added, as compared to the H3K4me2 level of the control (without addition of the compound) as 100%.

[4] = hippocampus, read-out: hippocampus concentration (mean)
[5] = plasma, read-out: plasma concentration (mean)

Structure (SMILES): Cc1nnc(NC(=O)c2cccc([C@@H]3C[C@H]3NCC3CC3)c2)s1 (relative stereo) [Example 96, 3-(trans-2-((cyclopropylmethyl)amino)cyclopropyl)-N-(5-methyl-1,3,4-thiadiazol-2-yl)benzamide hydrochloride]
- concentration at 1 h [1, 4]: 602 ng/g
- concentration at 1 h [1, 5]: 1060 ng/mL
- platelet number, percentage of compound administration group compared to control group, mean ([2]; 1 mg/kg): 100.9^b %
- red blood cell number, percentage of compound administration group compared to control group, mean ([2]; 1 mg/kg): 107.4^b %
- white blood cell number, percentage of compound administration group compared to control group, mean ([2]; 1 mg/kg): 116.6^b %
- platelet number, percentage of compound administration group compared to control group, mean ([2]; 10 mg/kg, hydrochloride): 102.1% and 101.0^c %
- red blood cell number, percentage of compound administration group compared to control group, mean ([2]; 10 mg/kg, hydrochloride): 97.9% and 102.6^c %
- white blood cell number, percentage of compound administration group compared to control group, mean ([2]; 10 mg/kg, hydrochloride): 61.5% and 122.4^c %
- platelet number, percentage of compound administration group compared to control group, mean ([2]; 100 mg/kg): 102.4%
- red blood cell number, percentage of compound administration group compared to control group, mean ([2]; 100 mg/kg): 100.7%
- white blood cell number, percentage of compound administration group compared to control group, mean ([2]; 100 mg/kg): 65.5%
- activity at 1 µM [3]: 122%
- activity at 10 µM [3]: 151%

Structure (SMILES): O=C(NC1CC(F)(F)C1)c1cccc([C@@H]2C[C@H]2NCC2CC2)c1 (relative stereo) [Example 99, 3-(trans-2-((cyclopropylmethyl)amino)cyclopropyl)-N-(3,3-difluorocyclobutyl)benzamide hydrochloride]
- concentration at 1 h [1, 4]: 283 ng/g
- concentration at 1 h [1, 5]: 143 ng/mL
- platelet number, percentage of compound administration group compared to control group, mean ([2]; 10 mg/kg): 116.9%
- red blood cell number, percentage of compound administration group compared to control group, mean ([2]; 10 mg/kg): 102.8%
- white blood cell number, percentage of compound administration group compared to control group, mean ([2]; 10 mg/kg): 66.0%
- platelet number, percentage of compound administration group compared to control group, mean ([2]; 100 mg/kg): 111.1%
- red blood cell number, percentage of compound administration group compared to control group, mean ([2]; 100 mg/kg): 101.5%
- white blood cell number, percentage of compound administration group compared to control group, mean ([2]; 100 mg/kg): 79.4%
- activity at 1 µM [3]: 174%
- activity at 10 µM [3]: 181%

Structure (SMILES): CCn1cc(NC(=O)c2cccc([C@@H]3C[C@H]3NCC3CC3)c2)cn1 (relative stereo) [Example 101, 3-(trans-2-((cyclopropylmethyl)amino)cyclopropyl)-N-(1-ethyl-1H-pyrazol-4-yl)benzamide dihydrochloride]
- concentration at 0.5 h [1, 4]: 181 ng/g
- concentration at 0.5 h [1, 5]: 907 ng/mL
- platelet number, percentage of compound administration group compared to control group, mean ([2]; 10 mg/kg): 107.9%
- red blood cell number, percentage of compound administration group compared to control group, mean ([2]; 10 mg/kg): 99.2%
- white blood cell number, percentage of compound administration group compared to control group, mean ([2]; 10 mg/kg): 121.8%
- platelet number, percentage of compound administration group compared to control group, mean ([2]; 100 mg/kg): 108.9%
- red blood cell number, percentage of compound administration group compared to control group, mean ([2]; 100 mg/kg): 98.5%
- white blood cell number, percentage of compound administration group compared to control group, mean ([2]; 100 mg/kg): 100.4%
- activity at 1 µM [3]: 128%
- activity at 10 µM [3]: 135%

Structure (SMILES): Cc1cc(NC(=O)c2cccc([C@@H]3C[C@H]3NCC3CC3)c2)no1 (relative stereo) [Example 103, 3-(trans-2-((cyclopropylmethyl)amino)cyclopropyl)-N-(5-methyl-1,2-oxazol-3-yl)benzamide hydrochloride]
- concentration at 1 h [1, 4]: 1030 ng/g
- concentration at 1 h [1, 5]: 375 ng/mL
- platelet number, percentage of compound administration group compared to control group, mean ([2]; 10 mg/kg): 88.7%
- red blood cell number, percentage of compound administration group compared to control group, mean ([2]; 10 mg/kg): 95.0%
- white blood cell number, percentage of compound administration group compared to control group, mean ([2]; 10 mg/kg): 100.9%
- platelet number, percentage of compound administration group compared to control group, mean ([2]; 100 mg/kg): 96.8%
- red blood cell number, percentage of compound administration group compared to control group, mean ([2]; 100 mg/kg): 98.5%
- white blood cell number, percentage of compound administration group compared to control group, mean ([2]; 100 mg/kg): 105.9%
- activity at 1 µM [3]: 139%
- activity at 10 µM [3]: 134%

Structure (SMILES): O=C(NC1CCN(CC(F)(F)F)CC1)c1cccc([C@@H]2C[C@H]2NCC2CC2)c1 (relative stereo) [Example 108, 3-(trans-2-((cyclopropylmethyl)amino)cyclopropyl)-N-(1-(2,2,2-trifluoroethyl)piperidin-4-yl)benzamide dihydrochloride]
- concentration at 0.5 h [1, 4]: 983 ng/g
- concentration at 0.5 h [1, 5]: 684 ng/mL
- platelet number, percentage of compound administration group compared to control group, mean ([2]; 10 mg/kg): 101.9%
- red blood cell number, percentage of compound administration group compared to control group, mean ([2]; 10 mg/kg): 99.0%
- white blood cell number, percentage of compound administration group compared to control group, mean ([2]; 10 mg/kg): 127.7%
- platelet number, percentage of compound administration group compared to control group, mean ([2]; 100 mg/kg): 94.2%
- red blood cell number, percentage of compound administration group compared to control group, mean ([2]; 100 mg/kg): 98.7%
- white blood cell number, percentage of compound administration group compared to control group, mean ([2]; 100 mg/kg): 129.4%
- activity at 1 µM [3]: 384%
- activity at 10 µM [3]: 268%

Structure (SMILES): Cc1nnc(NC(=O)c2cc([C@@H]3C[C@H]3NCC3CC3)ccc2F)s1 (relative stereo) [Example 110, 5-(trans-2-((cyclopropylmethyl)amino)cyclopropyl)-2-fluoro-N-(5-methyl-1,3,4-thiadiazol-2-yl)benzamide dihydrochloride]
- concentration at 0.5 h [1, 4]: 3300 ng/g
- concentration at 0.5 h [1, 5]: 4490 ng/mL
- platelet number, percentage of compound administration group compared to control group, mean ([2]; 10 mg/kg): 93.4%
- red blood cell number, percentage of compound administration group compared to control group, mean ([2]; 10 mg/kg): 98.7%
- white blood cell number, percentage of compound administration group compared to control group, mean ([2]; 10 mg/kg): 114.9%
- platelet number, percentage of compound administration group compared to control group, mean ([2]; 100 mg/kg): 96.4%
- red blood cell number, percentage of compound administration group compared to control group, mean ([2]; 100 mg/kg): 100.4%
- white blood cell number, percentage of compound administration group compared to control group, mean ([2]; 100 mg/kg): 112.0%
- activity at 1 µM [3]: 172%
- activity at 10 µM [3]: 208%

Structure (SMILES): Cc1nnc(NC(=O)c2cccc([C@@H]3C[C@H]3NC3CCOCC3)c2)s1 (relative stereo) [Example 165, N-(5-methyl-1,3,4-thiadiazol-2-yl)-3-(trans-2-(tetrahydro-2H-pyran-4-ylamino)cyclopropyl)benzamide fumarate]
- concentration at 1 h [1, 4]: 376 ng/g
- concentration at 1 h [1, 5]: 1840 ng/mL
- platelet number, percentage of compound administration group compared to control group, mean ([2]; 10 mg/kg): 99.3%
- red blood cell number, percentage of compound administration group compared to control group, mean ([2]; 10 mg/kg): 100.9%
- white blood cell number, percentage of compound administration group compared to control group, mean ([2]; 10 mg/kg): 104.4%
- platelet number, percentage of compound administration group compared to control group, mean ([2]; 100 mg/kg): 85.6%
- red blood cell number, percentage of compound administration group compared to control group, mean ([2]; 100 mg/kg): 103.2%
- white blood cell number, percentage of compound administration group compared to control group, mean ([2]; 100 mg/kg): 87.0%
- activity at 1 µM [3]: 272%
- activity at 10 µM [3]: 373%

Structure (SMILES): O=C(NC1CCCC1)c1cccc([C@@H]2C[C@H]2NC2CCOCC2)c1 (relative stereo) [Example 168, N-cyclopentyl-3-(trans-2-(tetrahydro-2H-pyran-4-ylamino)cyclopropyl)benzamide hydrochloride]
- concentration at 0.5 h [1, 4]: 439 ng/g
- concentration at 0.5 h [1, 5]: 451 ng/mL
- platelet number, percentage of compound administration group compared to control group, mean ([2]; 10 mg/kg): 106.8%
- red blood cell number, percentage of compound administration group compared to control group, mean ([2]; 10 mg/kg): 106.5%
- white blood cell number, percentage of compound administration group compared to control group, mean ([2]; 10 mg/kg): 97.6%
- platelet number, percentage of compound administration group compared to control group, mean ([2]; 100 mg/kg): 99.0%
- red blood cell number, percentage of compound administration group compared to control group, mean ([2]; 100 mg/kg): 101.1%
- white blood cell number, percentage of compound administration group compared to control group, mean ([2]; 100 mg/kg): 93.6%
- activity at 1 µM [3]: 227%
- activity at 10 µM [3]: 263%

Structure (SMILES): Cn1cc(NC(=O)c2cccc([C@@H]3C[C@H]3NC3CCCC3)c2)cn1 (relative stereo) [Example 172, 3-(trans-2-(cyclopentylamino)cyclopropyl)-N-(1-methyl-1H-pyrazol-4-yl)benzamide dihydrochloride]
- concentration at 1 h [1, 4]: 419 ng/g
- concentration at 1 h [1, 5]: 556 ng/mL
- platelet number, percentage of compound administration group compared to control group, mean ([2]; 10 mg/kg): 97.0%
- red blood cell number, percentage of compound administration group compared to control group, mean ([2]; 10 mg/kg): 99.0%
- white blood cell number, percentage of compound administration group compared to control group, mean ([2]; 10 mg/kg): 101.3%
- platelet number, percentage of compound administration group compared to control group, mean ([2]; 100 mg/kg): 99.6%
- red blood cell number, percentage of compound administration group compared to control group, mean ([2]; 100 mg/kg): 97.7%
- white blood cell number, percentage of compound administration group compared to control group, mean ([2]; 100 mg/kg): 130.0%
- activity at 1 µM [3]: 145%
- activity at 10 µM [3]: 204%

Structure (SMILES): Cc1nnc(NC(=O)c2cccc([C@@H]3C[C@H]3NC3CCN(C4CC4)CC3)c2)s1 (relative stereo) [Example 176, 3-(trans-2-((1-cyclopropylpiperidin-4-yl)amino)cyclopropyl)-N-(5-methyl-1,3,4-thiadiazol-2-yl)benzamide fumarate]
- concentration at 1 h [1, 4]: 642 ng/g
- concentration at 1 h [1, 5]: 515 ng/mL
- platelet number, percentage of compound administration group compared to control group, mean ([2]; 10 mg/kg): 96.7%
- red blood cell number, percentage of compound administration group compared to control group, mean ([2]; 10 mg/kg): 97.5%
- white blood cell number, percentage of compound administration group compared to control group, mean ([2]; 10 mg/kg): 106.6%
- platelet number, percentage of compound administration group compared to control group, mean ([2]; 100 mg/kg): 90.2%
- red blood cell number, percentage of compound administration group compared to control group, mean ([2]; 100 mg/kg): 100.8%
- white blood cell number, percentage of compound administration group compared to control group, mean ([2]; 100 mg/kg): 107.8%
- activity at 1 µM [3]: 139%
- activity at 10 µM [3]: 116%
